pIC50: −log10 of the molar value.
Tested on: Human primary T cells
Assay: IL-2 ELISA, human primary T cell, anti-CD3+CD28+ (whole cell assay)
Format: cell-based
Details: Homo sapiens, T-cell, 24 h, human primary T cells stimulated with anti-CD3 + anti-CD28, 24 hours
How it was run: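 PBMC-derived T cells, pre-expanded on αCD3/αCD28 with IL-2 and then washed free of IL-2, were preincubated with compound for 1 hr at 37° C (100,000 cells/well). They were then stimulated on 1 μg/ml αCD3 plus 5 μg/ml αCD28 for 24 h, and supernatant IL-2 was measured by ELISA. The counter-assay used 0.5 ng/ml PMA plus 0.1 μM ionomycin instead.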

| SMILES | pIC50 |
| --- | --- |
| CC(C)Oc1ncc(Nc2ncc(F)c(NC3CC(C)(C)N(C)C(C)(C)C3)n2)cc1-c1nnnn1C(C)C [Compound I-131, 5-fluoro-N2-(6-isopropoxy-5-(1-isopropyl-1H-tetrazol-5-yl)pyridin-3-yl)-N4-(1,2,2,6,6-pentamethylpiperidin-4-yl)pyrimidine-2,4-diamine] | 6.00 to 6.30 |
| CC(C)Oc1ncc(Nc2ncc(F)c(NC3CC(C)(C)NC(C)(C)C3)n2)cc1-c1nnnn1C(C)C [Compound I-132, 5-fluoro-N2-(6-isopropoxy-5-(1-isopropyl-1H-tetrazol-5-yl)pyridin-3-yl)-N4-(2,2,6,6-tetramethylpiperidin-4-yl)pyrimidine-2,4-diamine] | 6.00 to 6.30 |
| CC(C)Oc1ncc(Nc2ncc(C(N)=O)c(NC3CC(C)(C)N(C)C(C)(C)C3)n2)cc1-c1nnnn1C(C)C [Compound I-133, 2-(6-isopropoxy-5-(1-isopropyl-1H-tetrazol-5-yl)pyridin-3-ylamino)-4-(1,2,2,6,6-pentamethylpiperidin-4-ylamino)pyrimidine-5-carboxamide] | 6.00 to 6.30 |
| CC(C)Oc1ncc(Nc2ncc(C(N)=O)c(NC3CC(C)(C)NC(C)(C)C3)n2)cc1-c1nnnn1C(C)C [Compound I-134, 2-(6-isopropoxy-5-(1-isopropyl-1H-tetrazol-5-yl)pyridin-3-ylamino)-4-(2,2,6,6-tetramethylpiperidin-4-ylamino)pyrimidine-5-carboxamide] | < 6.00 |
| CC(C)Oc1ncc(Nc2ncc(C#N)c(NC3CC(C)(C)N(C)C(C)(C)C3)n2)cc1-c1nnnn1C(C)C [Compound I-135, 2-(6-isopropoxy-5-(1-isopropyl-1H-tetrazol-5-yl)pyridin-3-ylamino)-4-(1,2,2,6,6-pentamethylpiperidin-4-ylamino)pyrimidine-5-carbonitrile] | 6.00 to 6.30 |
| CC(C)Oc1ncc(Nc2ncc(C#N)c(NC3CC(C)(C)NC(C)(C)C3)n2)cc1-c1nnnn1C(C)C [Compound I-136, 2-(6-isopropoxy-5-(1-isopropyl-1H-tetrazol-5-yl)pyridin-3-ylamino)-4-(2,2,6,6-tetramethylpiperidin-4-ylamino)pyrimidine-5-carbonitrile] | < 6.00 |
| CC(C)Oc1ncc(Nc2ncc(F)c(NC3CC(C)(C)N(C)C(C)(C)C3)n2)cc1-c1nnnn1C1CC1 [Compound I-137, N2-(5-(1-cyclopropyl-1H-tetrazol-5-yl)-6-isopropoxypyridin-3-yl)-5-fluoro-N4-(1,2,2,6,6-pentamethylpiperidin-4-yl)pyrimidine-2,4-diamine] | > 6.60 |
| CC(C)Oc1ncc(Nc2ncc(F)c(NC3CC(C)(C)NC(C)(C)C3)n2)cc1-c1nnnn1C1CC1 [Compound I-138, N2-(5-(1-cyclopropyl-1H-tetrazol-5-yl)-6-isopropoxypyridin-3-yl)-5-fluoro-N4-(2,2,6,6-tetramethylpiperidin-4-yl)pyrimidine-2,4-diamine] | 6.00 to 6.30 |
| CC(C)Oc1ncc(Nc2ncc(C#N)c(NC3CC(C)(C)N(C)C(C)(C)C3)n2)cc1-c1nnnn1C1CC1 [Compound I-139, 2-(5-(1-cyclopropyl-1H-tetrazol-5-yl)-6-isopropoxypyridin-3-ylamino)-4-(1,2,2,6,6-pentamethylpiperidin-4-ylamino)pyrimidine-5-carbonitrile] | > 6.60 |
| CC(C)Oc1ncc(Nc2ncc(C#N)c(NC3CC(C)(C)NC(C)(C)C3)n2)cc1-c1nnnn1C1CC1 [Compound I-140, 2-(5-(1-cyclopropyl-1H-tetrazol-5-yl)-6-isopropoxypyridin-3-ylamino)-4-(2,2,6,6-tetramethylpiperidin-4-ylamino)pyrimidine-5-carbonitrile] | 6.30 to 6.60 |
| CC1(C)CC(Nc2nc(Nc3cnc(OCCN4CCCC4=O)c(OC(F)F)c3)ncc2F)CC(C)(C)N1 [Compound I-141, 1-(2-(3-(difluoromethoxy)-5-(5-fluoro-4-(2,2,6,6-tetramethylpiperidin-4-ylamino)pyrimidin-2-ylamino)pyridin-2-yloxy)ethyl)pyrrolidin-2-one] | < 6.00 |
| CN1C(C)(C)CC(Nc2nc(Nc3cnc(OCCN4CCCC4)c(OC(F)F)c3)ncc2F)CC1(C)C [Compound I-142, N2-(5-(difluoromethoxy)-6-(2-(pyrrolidin-1-yl)ethoxy)pyridin-3-yl)-5-fluoro-N4-(1,2,2,6,6-pentamethylpiperidin-4-yl)pyrimidine-2,4-diamine] | < 6.00 |
| CC1(C)CC(Nc2nc(Nc3cnc(OCCN4CCCC4)c(OC(F)F)c3)ncc2F)CC(C)(C)N1 [Compound I-143, N2-(5-(difluoromethoxy)-6-(2-(pyrrolidin-1-yl)ethoxy)pyridin-3-yl)-5-fluoro-N4-(2,2,6,6-tetramethylpiperidin-4-yl)pyrimidine-2,4-diamine] | < 6.00 |
| CC1(C)CC(Nc2nc(Nc3ccc(OC4CCN(CC(F)(F)F)CC4)c(OC(F)F)c3)ncc2F)CC(C)(C)N1 [Compound I-144, N2-(4-(1-(2,2,2-trifluoroethyl)piperidin-4-yloxy)-3-(difluoromethoxy)phenyl)-5-fluoro-N4-(2,2,6,6-tetramethylpiperidin-4-yl)pyrimidine-2,4-diamine] | 6.00 to 6.30 |
| CN1C(C)(C)CC(Nc2nc(Nc3ccc(OC4CCN(CC(F)(F)F)CC4)c(OC(F)F)c3)ncc2F)CC1(C)C [Compound I-145, N2-(4-(1-(2,2,2-trifluoroethyl)piperidin-4-yloxy)-3-(difluoromethoxy)phenyl)-5-fluoro-N4-(1,2,2,6,6-pentamethylpiperidin-4-yl)pyrimidine-2,4-diamine] | 6.30 to 6.60 |
| CC(C)N1CC[C@@H](Oc2ccc(Nc3ncc(F)c(NC4CC(C)(C)NC(C)(C)C4)n3)cc2OC(F)F)C1 [Compound I-146, N2-(4-((R)-1-isopropylpyrrolidin-3-yloxy)-3-(difluoromethoxy)phenyl)-5-fluoro-N4-(2,2,6,6-tetramethylpiperidin-4-yl)pyrimidine-2,4-diamine] | 6.30 to 6.60 |
| CC(C)N1CC[C@@H](Oc2ccc(Nc3ncc(F)c(NC4CC(C)(C)N(C)C(C)(C)C4)n3)cc2OC(F)F)C1 [Compound I-147, N2-(4-((R)-1-isopropylpyrrolidin-3-yloxy)-3-(difluoromethoxy)phenyl)-5-fluoro-N4-(1,2,2,6,6-pentamethylpiperidin-4-yl)pyrimidine-2,4-diamine] | > 6.60 |
| CC(C)N1CC[C@H](Oc2ccc(Nc3ncc(F)c(NC4CC(C)(C)NC(C)(C)C4)n3)cc2OC(F)F)C1 [Compound I-148, N2-(4-((S)-1-isopropylpyrrolidin-3-yloxy)-3-(difluoromethoxy)phenyl)-5-fluoro-N4-(2,2,6,6-tetramethylpiperidin-4-yl)pyrimidine-2,4-diamine] | 6.30 to 6.60 |
| CC(C)N1CC[C@H](Oc2ccc(Nc3ncc(F)c(NC4CC(C)(C)N(C)C(C)(C)C4)n3)cc2OC(F)F)C1 [Compound I-149, N2-(4-((S)-1-isopropylpyrrolidin-3-yloxy)-3-(difluoromethoxy)phenyl)-5-fluoro-N4-(1,2,2,6,6-pentamethylpiperidin-4-yl)pyrimidine-2,4-diamine] | > 6.60 |
| CC(C)N1CCC(Oc2ccc(Nc3ncc(F)c(NC4CC(C)(C)NC(C)(C)C4)n3)cc2C#N)CC1 [Compound I-150, 2-(1-isopropylpiperidin-4-yloxy)-5-(4-(2,2,6,6-tetramethylpiperidin-4-ylamino)-5-fluoropyrimidin-2-ylamino)benzonitrile] | > 6.60 |
| CC(C)N1CCC(Oc2ccc(Nc3ncc(F)c(NC4CC(C)(C)N(C)C(C)(C)C4)n3)cc2C#N)CC1 [Compound I-151, 2-(1-isopropylpiperidin-4-yloxy)-5-(4-(1,2,2,6,6-pentamethylpiperidin-4-ylamino)-5-fluoropyrimidin-2-ylamino)benzonitrile] | 6.00 to 6.30 |
| CN1C(C)(C)CC(Nc2nc(Nc3ccc4c(c3)OCC(C(=O)N3CCCCC3)O4)ncc2F)CC1(C)C (stereo not shown) [II-1, (6-(4-(1,2,2,6,6-pentamethylpiperidin-4-ylamino)-5-fluoropyrimidin-2-ylamino)-2,3-dihydrobenzo[b][1,4]dioxin-2-yl)(piperidin-1-yl)methanone] | < 6.00 |
| CN1C(C)(C)CC(Nc2nc(Nc3ccc4c(c3)OCC(C(=O)N3CCOCC3)O4)ncc2F)CC1(C)C (stereo not shown) [II-2, (6-(4-(1,2,2,6,6-pentamethylpiperidin-4-ylamino)-5-fluoropyrimidin-2-ylamino)-2,3-dihydrobenzo[b][1,4]dioxin-2-yl)(morpholino)methanone] | < 6.00 |
| CC1(C)CC(Nc2nc(Nc3ccc4c(c3)OCC(C(=O)N3CCCCC3)O4)ncc2F)CC(C)(C)N1 (stereo not shown) [II-3, (6-(4-(2,2,6,6-tetramethylpiperidin-4-ylamino)-5-fluoropyrimidin-2-ylamino)-2,3-dihydrobenzo[b][1,4]dioxin-2-yl)(piperidin-1-yl)methanone] | < 6.00 |
| CC1(C)CC(Nc2nc(Nc3ccc4c(c3)OCC(C(=O)N3CCOCC3)O4)ncc2F)CC(C)(C)N1 (stereo not shown) [II-4, (6-(4-(2,2,6,6-tetramethylpiperidin-4-ylamino)-5-fluoropyrimidin-2-ylamino)-2,3-dihydrobenzo[b][1,4]dioxin-2-yl)(morpholino)methanone] | < 6.00 |
| CN1C(C)(C)CC(Nc2nc(Nc3ccc4c(c3)OCC(CN3CCCCC3)O4)ncc2F)CC1(C)C (stereo not shown) [II-5, 5-fluoro-N2-(2,3-dihydro-2-((piperidin-1-yl)methyl)benzo[b][1,4]dioxin-6-yl)-N4-(1,2,2,6,6-pentamethylpiperidin-4-yl)pyrimidine-2,4-diamine] | < 6.00 |
| CN1C(C)(C)CC(Nc2nc(Nc3ccc4c(c3)OCC(CN3CCOCC3)O4)ncc2F)CC1(C)C (stereo not shown) [II-6, 5-fluoro-N2-(2,3-dihydro-2-(morpholinomethyl)benzo[b][1,4]dioxin-6-yl)-N4-(1,2,2,6,6-pentamethylpiperidin-4-yl)pyrimidine-2,4-diamine] | < 6.00 |
| CC1(C)CC(Nc2nc(Nc3ccc4c(c3)OCC(CN3CCCCC3)O4)ncc2F)CC(C)(C)N1 (stereo not shown) [II-7, 5-fluoro-N2-(2,3-dihydro-2-((piperidin-1-yl)methyl)benzo[b][1,4]dioxin-6-yl)-N4-(2,2,6,6-tetramethylpiperidin-4-yl)pyrimidine-2,4-diamine] | < 6.00 |

From US9149475B2, “Protein kinase C inhibitors and uses thereof” (Rigel Pharmaceuticals, Inc., priority 2009, dated 2015)
